Measurements taken from patent US9861680B2, “Immunomodulators” (BRISTOL-MYERS SQUIBB COMPANY, priority 2014, dated 2018).
Numbered stars: 1 amine (or outer) side, 2 acyl side, 3 side chain; on linkers, the order of the positions; unused ones are H or OH. Bridge positions count the residues as written; N and C are the ends. Square brackets hold non-standard residues; d marks the D form. Peptide text beside a SMILES is read from it. X1 = O=C(CN(CCC(F)(F)F)[*:1])[*:2]; Gly(N-2-aminoethyl) = NCCNCC(=O)O; Hyp = O=C(O)[C@@H]1C[C@@H](O)CN1; Gly(N-CH2CH2OH) = O=C(O)CNCCO; NMeNle = CCCC[C@H](NC)C(=O)O; NMeA = CN[C@@H](C)C(=O)O; Nphe = O=C(O)CNCc1ccccc1; Dab = NCC[C@H](N)C(=O)O; Nme = COCCNCC(=O)O; NEtG = CCNCC(=O)O

biological target: T1, PD-1-Ig binding to PD-L1-TVMV-His (PD-L1-His) (Homo sapiens, UniProt Q9NZQ7); assay: PD-1/PD-L1 Homogenous Time-Resolved Fluorescence (HTRF) binding assay; conditions: numeric value; PD-L1-His 10 nM, PD-1-Ig 20 nM
T1 construct: hPDL1(19-239)-TVMV-His; made in house; host or cells: HEK293T
Text: Methods for Testing the Ability of Macrocyclic Peptides to Compete for the Binding of Pd-1 to Pd-L1 Using Homogenous Time-Resolved Fluorescence (HTRF) Binding Assays
The ability of the macrocyclic peptides of the present disclosure to bind to PD-L1 was investigated using a PD-1/PD-L1 Homogenous Time-Resolved Fluorescence (HTRF) binding assay.
Homogenous Time-Resolved Fluorescence (HTRF) Assays of Binding of Soluble PD-1 to Soluble PD-L1. Soluble PD-1 and soluble PD-L1 refers to proteins with carboxyl-end truncations that remove the transmembrane-spanning regions and are fused to heterologous sequences, specifically the Fc portion of the human immunoglobuling G sequence (Ig) or the hexahistidine epitope tag (His). All binding studies were performed in an HTRF assay buffer consisting of dPBS supplemented with 0.1% (w/v) bovine serum albumin and 0.05% (v/v) Tween-20. For the PD-1-Ig/PD-L1-His binding assay, inhibitors were pre-incubated with PD-L1-His (10 nM final) for 15 m in 4 μl of assay buffer, followed by addition of PD-1-Ig (20 nM final) in 1 μl of assay buffer and further incubation for 15 m. PD-L1 fusion proteins from either human, cynomologous macaques, mouse, or other species were used. HTRF detection was achieved using europium crypate-labeled anti-Ig monoclonal antibody (1 nM final) and allophycocyanin (APC) labeled anti-His monoclonal antibody (20 nM final). Antibodies were diluted in HTRF detection buffer and 5 μl was dispensed on top of binding reaction. The reaction was allowed to equilibrate for 30 minutes and signal (665 nm/620 nm ratio) was obtained using an EnVision fluorometer. Additional binding assays were established between PD-1-Ig/PD-L2-His (20 and 5 nM, respectively), CD80-His/PD-L1-Ig (100 and 10 nM, respectively) and CD80-His/CTLA4-Ig (10 and 5 nM, respectively). Binding/competition studies between biotinylated Compound No. 71 and human PD-L1-His were performed as follows. Macrocyclic peptide inhibitors were pre-incubated with PD-L1-His (10 nM final) for 60 minutes in 4 μl of assay buffer followed by addition of biotinylated Compound No. 71 (0.5 nM final) in 1 μl of assay buffer. Binding was allowed to equilibrate for 30 minutes followed by addition of europium crypated labeled Streptavidin (2.5 pM final) and APC-labeled anti-His (20 nM final) in 5 μl of HTRF buffer. The reaction was allowed to equilibrate for 30 m and signal (665 nm/620 nm ratio) was obtained using an EnVision fluorometer.
Recombinant Proteins. Carboxyl-truncated human PD-1 (amino acids 25-167) with a C-terminal human Ig epitope tag [hPD-1 (25-167)-3S-IG] and human PD-L1 (amino acids 18-239) with a C-terminal His epitope tag [hPD-L1(19-239)-tobacco vein mottling virus protease cleavage site (TVMV)-His] were expressed in HEK293T cells and purified sequentially by recombinant Protein A affinity chromatography and size exclusion chromatography. Human PD-L2-His (Sino Biologicals), CD80-His (Sino Biologicals), CTLA4-Ig (RnD Systems) were all obtained through commercial sources.
Ranges are as follows: A=0.10-10 μM; B=0.01-0.099 μM; C=0.005-0.0099 μM.

T1 sequence (Q9NZQ7 with tags, fused parts or gaps): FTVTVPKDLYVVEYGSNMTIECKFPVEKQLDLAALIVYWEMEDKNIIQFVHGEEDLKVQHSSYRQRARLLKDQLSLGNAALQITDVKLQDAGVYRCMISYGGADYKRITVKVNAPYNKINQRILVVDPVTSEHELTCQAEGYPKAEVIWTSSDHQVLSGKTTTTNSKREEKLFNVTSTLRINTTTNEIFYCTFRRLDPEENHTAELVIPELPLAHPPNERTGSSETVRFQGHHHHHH

Row | IC50 [nM] | Structure (SMILES)
1 | 30 | CCCC[C@H]1C(=O)N(C)[C@@H](CCCC)C(=O)N[C@@H](CC(C)C)C(=O)N[C@H](C(=O)NCC(N)=O)CSCC(=O)N[C@@H](Cc2ccc(O)cc2)C(=O)N(C)[C@@H](C)C(=O)N[C@@H](CC(N)=O)C(=O)N2CCC[C@H]2C(=O)N[C@@H](Cc2cnc[nH]2)C(=O)N[C@@H](CCC(=O)O)C(=O)N(CC(=O)O)CC(=O)N[C@@H](Cc2c[nH]c3ccccc23)C(=O)N[C@@H](CCN)C(=O)N[C@@H](Cc2c[nH]c3ccccc23)C(=O)N1C [Example 3005]
2 | 200 | CCCC[C@H]1C(=O)N(C)[C@@H](CCCC)C(=O)N[C@@H](CC(C)C)C(=O)N[C@H](C(=O)NCC(N)=O)CSCC(=O)N[C@@H](Cc2ccc(O)cc2)C(=O)N(C)[C@@H](C)C(=O)N[C@@H](CC(N)=O)C(=O)N(Cc2ccccc2)CC(=O)N[C@@H](Cc2cnc[nH]2)C(=O)N[C@@H](CCC(=O)O)C(=O)N2C[C@H](O)C[C@H]2C(=O)N[C@@H](Cc2c[nH]c3ccccc23)C(=O)N[C@@H](CCN)C(=O)N[C@@H](Cc2c[nH]c3ccccc23)C(=O)N1C [Example 3008] ({CH2CO}-Y[NMeA]N[Nphe]HE[Hyp]W[Dab]W[NMeNle][NMeNle]LCG-NH2; thioether N-14)
3 | 6.12 | CCCC[C@H]1C(=O)N(C)[C@@H](CCCC)C(=O)N[C@@H](CC(C)C)C(=O)N[C@H](C(=O)NCC(N)=O)CSCC(=O)N[C@@H](Cc2ccc(O)cc2)C(=O)N(C)[C@@H](C)C(=O)N[C@@H](CC(N)=O)C(=O)N2CCC[C@H]2C(=O)N[C@@H](Cc2cnc[nH]2)C(=O)N[C@@H](CCC(=O)O)C(=O)N(CCN)CC(=O)N[C@@H](Cc2c[nH]c3ccccc23)C(=O)N[C@@H](CCN)C(=O)N[C@@H](Cc2c[nH]c3ccccc23)C(=O)N1C [Example 3011] ({CH2CO}-Y[NMeA]NPHE[Gly(N-2-aminoethyl)]W[Dab]W[NMeNle][NMeNle]LCG-NH2; thioether N-14)

same assay, conditions: range class; PD-L1-His 10 nM, PD-1-Ig 20 nM

Row | IC50 [nM] | Structure (SMILES)
4 | 10 to 99 | CCCC[C@H]1C(=O)N(C)[C@@H](CCCC)C(=O)N[C@@H](CC(C)C)C(=O)N[C@H](C(=O)NCC(N)=O)CSCC(=O)N[C@@H](Cc2ccc(O)cc2)C(=O)N(C)[C@@H](C)C(=O)N[C@@H](CC(N)=O)C(=O)N2CCC[C@H]2C(=O)N[C@@H](Cc2cnc[nH]2)C(=O)N[C@@H](CCC(=O)O)C(=O)N(CC)CC(=O)N[C@@H](Cc2c[nH]c3ccccc23)C(=O)N[C@@H](CCN)C(=O)N[C@@H](Cc2c[nH]c3ccccc23)C(=O)N1C [Example 3003] ({CH2CO}-Y[NMeA]NPHE[NEtG]W[Dab]W[NMeNle][NMeNle]LCG-NH2; thioether N-14)
5 | 10 to 99 | CCCC[C@H]1C(=O)N(C)[C@@H](CCCC)C(=O)N[C@@H](CC(C)C)C(=O)N[C@H](C(=O)NCC(N)=O)CSCC(=O)N[C@@H](Cc2ccc(O)cc2)C(=O)N(C)[C@@H](C)C(=O)N[C@@H](CC(N)=O)C(=O)N2CCC[C@H]2C(=O)N[C@@H](Cc2cnc[nH]2)C(=O)N[C@@H](CCC(=O)O)C(=O)N(Cc2ccccc2)CC(=O)N[C@@H](Cc2c[nH]c3ccccc23)C(=O)N[C@@H](CCN)C(=O)N[C@@H](Cc2c[nH]c3ccccc23)C(=O)N1C [Example 3004] ({CH2CO}-Y[NMeA]NPHE[Nphe]W[Dab]W[NMeNle][NMeNle]LCG-NH2; thioether N-14)
6 | 10 to 99 | CCCC[C@H]1C(=O)N(C)[C@@H](CCCC)C(=O)N[C@@H](CC(C)C)C(=O)N[C@H](C(=O)NCC(N)=O)CSCC(=O)N[C@@H](Cc2ccc(O)cc2)C(=O)N(C)[C@@H](C)C(=O)N[C@@H](CC(N)=O)C(=O)N2CCC[C@H]2C(=O)N[C@@H](Cc2cnc[nH]2)C(=O)N[C@@H](CCC(=O)O)C(=O)N(CCOC)CC(=O)N[C@@H](Cc2c[nH]c3ccccc23)C(=O)N[C@@H](CCN)C(=O)N[C@@H](Cc2c[nH]c3ccccc23)C(=O)N1C [Example 3006] ({CH2CO}-Y[NMeA]NPHE[Nme]W[Dab]W[NMeNle][NMeNle]LCG-NH2; thioether N-14)
7 | 10 to 99 | CCCC[C@H]1C(=O)N(C)[C@@H](CCCC)C(=O)N[C@@H](CC(C)C)C(=O)N[C@H](C(=O)NCC(N)=O)CSCC(=O)N[C@@H](Cc2ccc(O)cc2)C(=O)N(C)[C@@H](C)C(=O)N[C@@H](CC(N)=O)C(=O)N2CCC[C@H]2C(=O)N[C@@H](Cc2cnc[nH]2)C(=O)N[C@@H](CCC(=O)O)C(=O)N(CCC(F)(F)F)CC(=O)N[C@@H](Cc2c[nH]c3ccccc23)C(=O)N[C@@H](CCN)C(=O)N[C@@H](Cc2c[nH]c3ccccc23)C(=O)N1C [Example 3007] ({CH2CO}-Y[NMeA]NPHE[X1]W[Dab]W[NMeNle][NMeNle]LCG-NH2; thioether N-14)
8 | 10 to 99 | CCCC[C@H]1C(=O)N(C)[C@@H](CCCC)C(=O)N[C@@H](CC(C)C)C(=O)N[C@H](C(=O)NCC(N)=O)CSCC(=O)N[C@@H](Cc2ccc(O)cc2)C(=O)N(C)[C@@H](C)C(=O)N[C@@H](CC(N)=O)C(=O)N(CCOC)CC(=O)N[C@@H](Cc2cnc[nH]2)C(=O)N[C@@H](CCC(=O)O)C(=O)N2C[C@H](O)C[C@H]2C(=O)N[C@@H](Cc2c[nH]c3ccccc23)C(=O)N[C@@H](CCN)C(=O)N[C@@H](Cc2c[nH]c3ccccc23)C(=O)N1C [Example 3009] ({CH2CO}-Y[NMeA]N[Nme]HE[Hyp]W[Dab]W[NMeNle][NMeNle]LCG-NH2; thioether N-14)
9 | 10 to 99 | CCCC[C@H]1C(=O)N(C)[C@@H](CCCC)C(=O)N[C@@H](CC(C)C)C(=O)N[C@H](C(=O)NCC(N)=O)CSCC(=O)N[C@@H](Cc2ccc(O)cc2)C(=O)N(C)[C@@H](C)C(=O)N[C@@H](CC(N)=O)C(=O)N(CCC(F)(F)F)CC(=O)N[C@@H](Cc2cnc[nH]2)C(=O)N[C@@H](CCC(=O)O)C(=O)N2C[C@H](O)C[C@H]2C(=O)N[C@@H](Cc2c[nH]c3ccccc23)C(=O)N[C@@H](CCN)C(=O)N[C@@H](Cc2c[nH]c3ccccc23)C(=O)N1C [Example 3010] ({CH2CO}-Y[NMeA]N[X1]HE[Hyp]W[Dab]W[NMeNle][NMeNle]LCG-NH2; thioether N-14)
10 | 10 to 99 | CCCC[C@H]1C(=O)N(C)[C@@H](CCCC)C(=O)N[C@@H](CC(C)C)C(=O)N[C@H](C(=O)NCC(N)=O)CSCC(=O)N[C@@H](Cc2ccc(O)cc2)C(=O)N(C)[C@@H](C)C(=O)N[C@@H](CC(N)=O)C(=O)N2CCC[C@H]2C(=O)N[C@@H](Cc2cnc[nH]2)C(=O)N[C@@H](CCC(=O)O)C(=O)N(CCO)CC(=O)N[C@@H](Cc2c[nH]c3ccccc23)C(=O)N[C@@H](CCN)C(=O)N[C@@H](Cc2c[nH]c3ccccc23)C(=O)N1C [Example 3012] ({CH2CO}-Y[NMeA]NPHE[Gly(N-CH2CH2OH)]W[Dab]W[NMeNle][NMeNle]LCG-NH2; thioether N-14)
11 | 10 to 99 | CCCC[C@H]1C(=O)N(C)[C@@H](CCCC)C(=O)N[C@@H](CC(C)C)C(=O)N[C@H](C(=O)NCC(N)=O)CSCC(=O)N[C@@H](Cc2ccc(O)cc2)C(=O)N(C)[C@@H](C)C(=O)N[C@@H](CC(N)=O)C(=O)N(CC)CC(=O)N[C@@H](Cc2cnc[nH]2)C(=O)N[C@@H](CCC(=O)O)C(=O)N2C[C@H](O)C[C@H]2C(=O)N[C@@H](Cc2c[nH]c3ccccc23)C(=O)N[C@@H](CCN)C(=O)N[C@@H](Cc2c[nH]c3ccccc23)C(=O)N1C [Example 3013] ({CH2CO}-Y[NMeA]N[NEtG]HE[Hyp]W[Dab]W[NMeNle][NMeNle]LCG-NH2; thioether N-14)
12 | 10 to 99 | CCCC[C@H]1C(=O)N(C)[C@@H](CCCC)C(=O)N[C@@H](CC(C)C)C(=O)N[C@H](C(=O)NCC(N)=O)CSCC(=O)N[C@@H](Cc2ccc(O)cc2)C(=O)N(C)[C@@H](C)C(=O)N[C@@H](CC(N)=O)C(=O)N(CCN)CC(=O)N[C@@H](Cc2cnc[nH]2)C(=O)N[C@@H](CCC(=O)O)C(=O)N2C[C@H](O)C[C@H]2C(=O)N[C@@H](Cc2c[nH]c3ccccc23)C(=O)N[C@@H](CCN)C(=O)N[C@@H](Cc2c[nH]c3ccccc23)C(=O)N1C [Example 3014] ({CH2CO}-Y[NMeA]N[Gly(N-2-aminoethyl)]HE[Hyp]W[Dab]W[NMeNle][NMeNle]LCG-NH2; thioether N-14)
